Target: T1, recombinant wild-type human asparagine synthetase (ASNS) (Homo sapiens, UniProt P08243)
T1 sequence (P08243 2-561): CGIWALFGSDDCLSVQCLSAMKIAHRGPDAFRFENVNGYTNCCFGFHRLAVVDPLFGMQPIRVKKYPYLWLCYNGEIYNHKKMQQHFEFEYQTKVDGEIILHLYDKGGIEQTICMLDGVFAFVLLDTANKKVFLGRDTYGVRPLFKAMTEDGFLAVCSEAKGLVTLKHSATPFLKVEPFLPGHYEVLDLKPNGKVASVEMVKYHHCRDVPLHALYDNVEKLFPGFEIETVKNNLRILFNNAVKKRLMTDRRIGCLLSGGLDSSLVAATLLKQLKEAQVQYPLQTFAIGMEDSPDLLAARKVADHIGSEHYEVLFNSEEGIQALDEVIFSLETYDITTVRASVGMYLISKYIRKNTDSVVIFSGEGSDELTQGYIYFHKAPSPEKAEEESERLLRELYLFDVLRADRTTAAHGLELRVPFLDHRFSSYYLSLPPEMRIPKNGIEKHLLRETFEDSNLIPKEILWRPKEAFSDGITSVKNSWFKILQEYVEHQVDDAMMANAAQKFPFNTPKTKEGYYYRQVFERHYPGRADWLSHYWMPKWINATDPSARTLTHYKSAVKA
Assay: PPi production, continuous NADH-coupled assay
Assay type: biochemical

Ki: 0.4 nM
Compound: CC[C@H](N)C(=O)N1C[C@@H](c2ccc(F)cc2)[C@H](O)[C@@H]1C(=O)NC(c1ccccc1)c1ccccc1 [ASX-173]

— paper doi:10.1101/2025.07.03.662851v1 (biorxiv, 2025)
